According to PubChem BioAssay (NCI):
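Following 48 hours of exposure in 96-well plates, responses at five concentrations were used to interpolate endpoints linearly. TGI: total growth inhibition.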

Assays:
Test in all cases: NCI-60 cell line screen, 48 h
CAKI-1 renal = test system: CAKI-1 renal
BT-549 breast = test system: BT-549 breast
MDA-MB-435 = test system: MDA-MB-435
DMS 114 small cell lung = test system: DMS 114 small cell lung
TK-10 renal = test system: TK-10 renal
NCI-H226 lung = test system: NCI-H226 lung
MOLT-4 leukemia = test system: MOLT-4 leukemia
LOX IMVI melanoma = test system: LOX IMVI melanoma
OVCAR-8 ovarian = test system: OVCAR-8 ovarian
HOP-18 NSCLC = test system: HOP-18 NSCLC
MCF7 breast = test system: MCF7 breast
NCI/ADR-RES ovarian = test system: NCI/ADR-RES ovarian
HCT-116 colon = test system: HCT-116 colon
DMS 273 small cell lung = test system: DMS 273 small cell lung
NCI-H460 lung = test system: NCI-H460 lung
M14 melanoma = test system: M14 melanoma
PC-3 prostate = test system: PC-3 prostate
SNB-19 CNS = test system: SNB-19 CNS
OVCAR-5 ovarian = test system: OVCAR-5 ovarian
SR leukemia = test system: SR leukemia
HT29 colon = test system: HT29 colon
OVCAR-4 ovarian = test system: OVCAR-4 ovarian
SK-MEL-2 melanoma = test system: SK-MEL-2 melanoma
NCI-H522 lung = test system: NCI-H522 lung
ACHN renal = test system: ACHN renal
HL-60(TB) leukemia = test system: HL-60(TB) leukemia
SK-OV-3 ovarian = test system: SK-OV-3 ovarian
T-47D breast = test system: T-47D breast
SN12C renal = test system: SN12C renal
A498 renal = test system: A498 renal
IGROV1 ovarian = test system: IGROV1 ovarian
SNB-75 CNS = test system: SNB-75 CNS
KM20L2 colon = test system: KM20L2 colon
SF-268 CNS = test system: SF-268 CNS
RXF-631 renal = test system: RXF-631 renal
UO-31 renal = test system: UO-31 renal
HOP-62 NSCLC = test system: HOP-62 NSCLC
K-562 leukemia = test system: K-562 leukemia
DU-145 prostate = test system: DU-145 prostate
U251 CNS = test system: U251 CNS
UACC-62 melanoma = test system: UACC-62 melanoma
SNB-78 CNS = test system: SNB-78 CNS
KM12 colon = test system: KM12 colon
SW-620 colon = test system: SW-620 colon
UACC-257 melanoma = test system: UACC-257 melanoma
NCI-H23 lung = test system: NCI-H23 lung
M19-MEL melanoma = test system: M19-MEL melanoma
COLO 205 colon = test system: COLO 205 colon
RPMI-8226 leukemia = test system: RPMI-8226 leukemia
A549 NSCLC = test system: A549 NSCLC
EKVX NSCLC = test system: EKVX NSCLC
OVCAR-3 ovarian = test system: OVCAR-3 ovarian
MALME-3M melanoma = test system: MALME-3M melanoma
SK-MEL-5 melanoma = test system: SK-MEL-5 melanoma
HCT-15 colon = test system: HCT-15 colon
LXFL 529 NSCLC = test system: LXFL 529 NSCLC
HS 578T breast = test system: HS 578T breast
CCRF-CEM leukemia = test system: CCRF-CEM leukemia
MDA-MB-231 breast = test system: MDA-MB-231 breast
DLD-1 colon = test system: DLD-1 colon
SF-539 CNS = test system: SF-539 CNS
786-0 renal = test system: 786-0 renal

In the case of O=C(NC(=O)c1ccccc1[N+](=O)[O-])Nc1ccc(Oc2ncc(Cl)cn2)c([N+](=O)[O-])c1, the TGI (CAKI-1 renal) is reported as > 100 µM, the TGI (BT-549 breast) is reported as > 100 µM and the TGI (MDA-MB-435) is reported as 0.197 µM. The TGI (DMS 114 small cell lung) was 0.359 µM, the TGI (TK-10 renal) was > 100 µM and the TGI (NCI-H226 lung) was 1.07 µM. For the same molecule, the TGI (MOLT-4 leukemia) was > 100 µM, the TGI (LOX IMVI melanoma) was > 100 µM and the TGI (OVCAR-8 ovarian) was > 100 µM. The TGI (HOP-18 NSCLC) was > 100 µM, the TGI (MCF7 breast) was > 100 µM and the TGI (NCI/ADR-RES ovarian) was 3.15 µM. The TGI (HCT-116 colon) was > 100 µM, the TGI (DMS 273 small cell lung) was > 100 µM and the TGI (NCI-H460 lung) was > 100 µM. For the same molecule, the TGI (M14 melanoma) was > 100 µM, the TGI (PC-3 prostate) was > 100 µM and the TGI (SNB-19 CNS) was > 100 µM. The TGI (OVCAR-5 ovarian) was > 100 µM, the TGI (SR leukemia) was > 100 µM and the TGI (HT29 colon) was 3.31 µM. For the same molecule, the TGI (OVCAR-4 ovarian) was > 100 µM, the TGI (SK-MEL-2 melanoma) was > 100 µM and the TGI (NCI-H522 lung) was 1.68 µM. The TGI (ACHN renal) was > 100 µM, the TGI (HL-60(TB) leukemia) was 1.17 µM and the TGI (SK-OV-3 ovarian) was > 69.3 µM. The TGI (T-47D breast) was > 100 µM, the TGI (SN12C renal) was > 100 µM and the TGI (A498 renal) was 30.3 µM. For the same molecule, the TGI (IGROV1 ovarian) was > 71.8 µM, the TGI (SNB-75 CNS) was 0.313 µM and the TGI (KM20L2 colon) was 0.383 µM. For the same molecule, the TGI (SF-268 CNS) was > 100 µM, the TGI (RXF-631 renal) was > 100 µM and the TGI (UO-31 renal) was > 95.7 µM. The TGI (HOP-62 NSCLC) was > 100 µM, the TGI (K-562 leukemia) was > 100 µM and the TGI (DU-145 prostate) was > 100 µM. The TGI (U251 CNS) was > 88.6 µM, the TGI (UACC-62 melanoma) was > 100 µM and the TGI (SNB-78 CNS) was > 100 µM. The TGI (KM12 colon) was > 66.3 µM, the TGI (SW-620 colon) was > 100 µM and the TGI (UACC-257 melanoma) was > 100 µM. The TGI (NCI-H23 lung) was > 28 µM, the TGI (M19-MEL melanoma) was > 100 µM and the TGI (COLO 205 colon) was 6.06 µM. The TGI (RPMI-8226 leukemia) was > 100 µM, the TGI (A549 NSCLC) was > 100 µM and the TGI (EKVX NSCLC) was > 100 µM. For the same molecule, the TGI (OVCAR-3 ovarian) was > 7.67 µM, the TGI (MALME-3M melanoma) was > 100 µM and the TGI (SK-MEL-5 melanoma) was > 14.1 µM. The TGI (HCT-15 colon) was > 95.6 µM, the TGI (LXFL 529 NSCLC) was > 100 µM and the TGI (HS 578T breast) was 0.636 µM. The TGI (CCRF-CEM leukemia) was > 100 µM, the TGI (MDA-MB-231 breast) was 63.1 µM and the TGI (DLD-1 colon) was > 100 µM. For the same molecule, the TGI (SF-539 CNS) was 8.38 µM and the TGI (786-0 renal) was > 100 µM.
